25 compounds from patent US20240109881A1, “Heteroaryl Compounds as Ligand Directed Degraders of IRAK4” (Bristol-Myers Squibb Company, priority 2022, published 2024) can be followed below.

The structures appear in SMILES notation. Counter-ions that a name gives are not always drawn.

This assay addresses T1, IRAK4 (Homo sapiens, UniProt Q9NWZ3).
T1 construct: endogenous in cells; host or cells: THP-1 cells
T1 sequence (Q9NWZ3 1-460): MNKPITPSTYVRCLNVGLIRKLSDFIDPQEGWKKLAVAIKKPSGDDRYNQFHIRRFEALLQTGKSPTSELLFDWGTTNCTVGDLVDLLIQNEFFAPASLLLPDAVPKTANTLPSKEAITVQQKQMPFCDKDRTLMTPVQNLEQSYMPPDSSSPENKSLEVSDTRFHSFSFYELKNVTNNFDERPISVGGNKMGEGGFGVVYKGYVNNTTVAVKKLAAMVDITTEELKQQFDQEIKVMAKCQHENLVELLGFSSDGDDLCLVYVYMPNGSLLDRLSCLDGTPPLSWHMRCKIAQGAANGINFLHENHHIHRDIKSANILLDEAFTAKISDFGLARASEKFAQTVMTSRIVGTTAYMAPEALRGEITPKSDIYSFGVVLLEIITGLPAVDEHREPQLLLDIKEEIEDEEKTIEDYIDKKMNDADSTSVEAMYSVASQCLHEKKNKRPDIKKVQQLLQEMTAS
Description: LVL THP1 HTRF (THP1 Homogeneous Time Resolved Fluorescence). The settings on record: THP1 cells, 18 h incubation with compound; for DC50: read-out: LVL THP1 HTRF EC50. The format is cell-based. The procedure:
Cell culture media was prepared in a tissue culture hood in a sterile environment by adding 10% FBS and 1% Penicillin Streptomycin to 500 mL no phenol red RPMI 1640 media. The media was filtered through a Nalgene Bottle Top Filter and stored at 4° C.
For Homogenous Time Resolved Fluorescence (HTRF) assays, a Cisbio HTRF kit was used, which included: Lysis Buffer #1 4×, Blocking Reagent #3 100×, 20× Antibody 1 (Anti-IRAK4 d2), 20× Antibody 2 (Anti-IRAK4 k), and Detection Buffer.
The THP1 plates were prepared by the following method. For each dosing plate, a duplicate for CTG assay was prepared. Two THP-1 T-175 flasks could be used to plate one 384 well plate. The cells were collected from two T-175 flasks into 200 mL centrifuge tubes and spun down at 1200 rpm for 10 min. The supernatant was removed completely and cells were resuspended in 7.5 mL cell culture media. To 5 μL of the cell suspension was added 25 μL of media and 30 μL of Trypan Blue stain. The cells were counted using countess (automated cell counter, Thermo Fisher Scientific) twice and the viability and live cell count was recorded. The actual cell count was […] the live cell count. Based on the count, a cell suspension was prepared in colorless RPMI media for a final concentration of 7.5e6 cells/mL. Using Standard cassette multidrop combi, 20 μL of the 7.5e6 cells/mL cell stock was added to entire 384 well plate but for top half of column 1 (negative control) The multidrop combi was always primed to achieve a steady flow and washed after use with 20 mL de-ionized water followed by 20 mL alcohol. The cells were incubated in 5% CO2 incubator at 37° C.
Dosing was conducted using the following method. To dose assay plates and CTG plate was added 20 nL of compounds in DMSO using Echo (Beckman Coulter), and the plates were incubated at 37° C. for 18 h. The compound plates were spun at 1200 rpm for 1 min before dosing. The compound plate was sealed and properly stored during incubation.
After dosing, an HTRF assay was conducted using the following method. The treatment plates (IRAK4_HTRF) were centrifuged at 600 g for 10 min. Using CyBio Felix, Automated liquid handler (Analytikjena), 13 μL cell culture media was removed. To all columns, 7.5 μL lysis buffer was added, and an additional 7.5 μL of lysis buffer was added to column 1(top half, negative control). The plate was incubated on a shaker at room temperature for 2 h. The plate was spun down at 600 g for 5 min. Custom 20×IRAK4 Antibody obtained from CISBIO Anti-IRAK4-d2 (acceptor Ab) and Anti-IRAK4-K (donor Ab) were diluted to 1× antibody mix Using a multichannel repeater, 4 μL of 1× antibody mix was added to each wellThe plate was spun down at 600 g for 5 min and incubated in the dark at room temperature for 18 h The next day (after 18 hrs), HTRF assay plate was spun down at 600 g for 5 min and read at 665/615 nm using a Envision plate reader.

With `C[C@H](C#N)Nc1cc(-n2ncc3cc(C#N)cnc32)ncc1-n1cc([C@H]2CC[C@H](CCN3CCC(c4ccc(N5CCC(=O)NC5=O)cc4)C3)CC2)nn1` (single isomer, unassigned) [P-497], the “LVL THP1 HTRF YMIN” value was 13.6% and the DC50 was found to be 0.239 µM.
Consider `C[C@H](C#N)Nc1cc(-n2ncc3cc(C#N)cnc32)ncc1C(=O)N[C@H]1CC[C@H](CCN2CC3(CC(c4ccc(N5CCC(=O)NC5=O)cc4)C3)C2)CC1` [P-433], for which the “LVL THP1 HTRF YMIN” value amounted to 37.6% and the DC50 is 0.7 µM.
Consider `C[C@H](C#N)Nc1cc(Nc2ncc(C#N)cc2Cl)ncc1-n1cc([C@H]2CC[C@H](CCN3CCN(c4ccc(N5CCC(=O)NC5=O)cc4)[C@@H]4COC[C@@H]43)CC2)nn1` (single isomer, unassigned) [P-503], for which the “LVL THP1 HTRF YMIN” value is recorded as 82.16% and the DC50 amounted to 1 µM.
For the compound `COc1cc([C@@]2(C)CCC(=O)NC2=O)ccc1N1CCN(CC[C@H]2CC[C@H](c3cn(-c4cnc(-n5ncc6cc(C#N)c(N)nc65)cc4N[C@H](C)C#N)nn3)CC2)C[C@@H]1C` (single isomer, unassigned) [P-302], the “LVL THP1 HTRF YMIN” value is recorded as 3.3% and the DC50 amounted to 0.0105 µM.
For `C[C@H](C#N)Nc1cc(-n2ncc3cc(C#N)c(N)nc32)ncc1-n1cc([C@H]2CC[C@H](CCN3CCN(c4ccc([C@@]5(C)CCC(=O)NC5=O)nc4)[C@@H](C)C3)CC2)nn1` (single isomer, unassigned) [P-257] the same measures were 34.7% and 0.0928 µM.
As for `C[C@H](C#N)Nc1cc(Nc2ncc(C#N)cc2F)ncc1-n1cc([C@H]2CC[C@H](CCN3CCN(c4ccc(N5CCC(=O)NC5=O)cc4)[C@H](C)C3)CC2)nn1` [P-385], the “LVL THP1 HTRF YMIN” value was −1.9% and the DC50 was found to be 0.0087 µM.
As to `C[C@H](C#N)Nc1cc(-n2ccc3cc(C#N)c(N)nc32)ncc1C(=O)N[C@H]1CC[C@H](CCN2CCN(c3ccc(C4CCC(=O)NC4=O)cc3)CC2)CC1` (some centres unmarked) [P-200], the “LVL THP1 HTRF YMIN” value is recorded as 1.5% and the DC50 was 0.013 µM.
Consider `C[C@H](C#N)Nc1cc(-n2ncc3cc(C#N)cnc32)ncc1-n1cc([C@H]2CC[C@H](CCN3CC[C@H]4[C@@H]3CN4c3ccc(N4CCC(=O)NC4=O)cc3)CC2)nn1` (single isomer, unassigned) [P-494], for which the “LVL THP1 HTRF YMIN” value came out at 21.2% and the DC50 was 0.11 µM.
Take `C[C@H](C#N)Nc1cc(-n2ncc3cc(C#N)c(N)nc32)ncc1-n1cc(C2CCC(CCN3[C@@H](C)CN(c4ccc(C5CCC(=O)NC5=O)cc4)C[C@@H]3C)CC2)nn1` (some centres unmarked) [P-223]: the “LVL THP1 HTRF YMIN” value came to 2.1% and the DC50 was less than 0.001 µM.
On to `C[C@H](C#N)Nc1cc(-n2ncc3cc(C#N)cnc32)ncc1-n1cc([C@H]2CC[C@](O)(CCN3CCN(c4ccc([C@@]5(C)CCC(=O)NC5=O)nc4)CC3)CC2)nn1` (single isomer, unassigned) [P-294], for which the “LVL THP1 HTRF YMIN” value is given as 76.0% and the DC50 stood at 1.23 µM.
The matching figures for `COc1cc([C@@]2(C)CCC(=O)NC2=O)ccc1N1CCN(CC[C@H]2CC[C@H](c3cn(-c4cnc(-n5ncc6cc(C#N)c(N)nc65)cc4N[C@H](C)C#N)nn3)CC2)C[C@@H]1C` (single isomer, unassigned) [P-303]: 90.1% and 0.111 µM.
As for `C[C@H](C#N)Nc1cc(-n2ncc3cc(C#N)cnc32)ncc1C(=O)N[C@H]1CC[C@@H](CCN2CC[C@H]3[C@@H]2CCN3c2ccc(N3CCC(=O)NC3=O)c(Cl)c2)CC1` (single isomer, unassigned) [P-488], the “LVL THP1 HTRF YMIN” value came to 41.7% and the DC50 was 4.45 µM.
For `C[C@H](C#N)Nc1cc(-n2ncc3cc(C#N)cnc32)ncc1-n1cc(C23CCC(CCN4CCN(c5ccc(C6CCC(=O)NC6=O)cc5)CC4)(CC2)C3)nn1` (stereo partly drawn) [P-202, 1-(4-(((R)-1-cyanoethyl)amino)-5-(4-(4-(2-(4-(4-(2,6-dioxopiperidin-3-yl)phenyl)piperazin-1-yl)ethyl)bicyclo[2.2.1]heptan-1-yl)-1H-1,2,3-triazol-1-yl)pyridin-2-yl)-1H-pyrazolo[3,4-b]pyridine-5-carbonitrile, TFA], the “LVL THP1 HTRF YMIN” value amounted to 1.4% and the DC50 was 0.01 µM.
For `C[C@H](C#N)Nc1cc(-n2ncc3cc(C#N)cnc32)ncc1-n1cc([C@H]2CC[C@H](CCN3CCC(n4nc(N5CCC(=O)NC5=O)c5ccccc54)CC3)CC2)nn1` [P-351], the “LVL THP1 HTRF YMIN” value turned out to be 69.0%.
For the compound `C[C@H](C#N)Nc1cc(-n2ncc3cc(C#N)c(N)nc32)ncc1-n1cc([C@H]2CC[C@H](CCN3[C@H](C)CN(c4ccc([C@@]5(C)CCC(=O)NC5=O)cn4)C[C@H]3C)CC2)nn1` (single isomer, unassigned) [P-253], the “LVL THP1 HTRF YMIN” value turned out to be 9.4% and the DC50 is 0.0487 µM.
In the case of `C[C@H](C#N)Nc1cc(-n2ncc3cc(C#N)c(N4C[C@H]5C[C@@H]4CO5)nc32)ncc1-n1cc([C@H]2CC[C@H](CCN3CCN(c4ccc([C@@]5(C)CCC(=O)NC5=O)cc4)CC3)CC2)nn1` [P-269], the “LVL THP1 HTRF YMIN” value was determined as 6.3% and the DC50 was determined as 0.0118 µM.
Take `C[C@H](C#N)Nc1cc(-n2ncc3cc(C#N)cnc32)ncc1-n1cc([C@H]2CC[C@H](CCN3CCN(c4ccc(N5CCC(=O)NC5=O)nn4)CC3)CC2)nn1` [P-423]: the “LVL THP1 HTRF YMIN” value stood at 8.6% and the DC50 was found to be 0.143 µM.
`C[C@H](C#N)Nc1cc(-n2ncc3cc(C#N)cnc32)ncc1-n1cc([C@H]2CC[C@H](CCN3CCC(c4ccc(N5CCC(=O)NC5=O)cn4)CC3)CC2)nn1` [P-345]: the “LVL THP1 HTRF YMIN” value is listed as 87.0% and the DC50 worked out at 1 µM.
As to `C[C@]1(c2ccc(N3CCN(CC[C@H]4CC[C@H](c5cn(-c6cnc(-n7ncc8cc(C#N)cnc87)cc6NC6(C#N)CC6)nn5)CC4)CC3)cc2)CCC(=O)NC1=O` [P-234], the DC50 was determined as 0.013 µM.
Turning to `C[C@H](C#N)Nc1cc(Nc2ncc(C#N)cc2F)ncc1-n1cc([C@H]2CC[C@H](CCN3CC[C@H]4[C@@H]3CCN4c3ccc(N4CCC(=O)NC4=O)cc3)CC2)nn1` (single isomer, unassigned) [P-507], the “LVL THP1 HTRF YMIN” value is on record as −1.72% and the DC50 worked out at 0.0628 µM.
On to `C[C@H](C#N)Nc1cc(Nc2ncc(C#N)cn2)ncc1-n1cc([C@H]2CC[C@H](CCN3CCN(c4ccc(C5CCC(=O)NC5=O)cc4)CC3)CC2)nn1` (some centres unmarked) [P-388], for which the “LVL THP1 HTRF YMIN” value is 3.5% and the DC50 came to 0.0111 µM.
For `C[C@H](C#N)Nc1cc(-n2ncc3cc(C#N)cnc32)ncc1-n1cc([C@H]2CC[C@H](CCN3CC[C@@H](c4ccc([C@@]5(C)CCC(=O)NC5=O)cc4)C(F)(F)C3)CC2)nn1` (single isomer, unassigned) [P-314] the same measures were 6.5% and 0.0218 µM.
Consider `C[C@H](C#N)Nc1cc(-n2ncc3cc(C#N)cnc32)ncc1-n1cc([C@H]2CC[C@H](CCN3CCC(c4ccc(N5CCC(=O)NC5=O)cc4)C3)CC2)nn1` (single isomer, unassigned) [P-491], for which the “LVL THP1 HTRF YMIN” value came out at 14.9% and the DC50 was 0.156 µM.
In the case of `C[C@H](C#N)Nc1cc(-n2ncc3cc(C#N)cnc32)ncc1-n1cc([C@H]2CC[C@H](CCN3C[C@@H](C)N(c4ccc(N5CCC(=O)NC5=O)cc4)C[C@@H]3C)CC2)nn1` [P-483], the “LVL THP1 HTRF YMIN” value worked out at 3.4% and the DC50 was 0.011 µM.
For `C[C@@H](C#N)Nc1cc(-n2ncc3cc(C#N)cnc32)ncc1-n1cc([C@H]2CC[C@H](CCN3CCN(c4ccc(C5CCC(=O)NC5=O)cc4)CC3)CC2)nn1` (some centres unmarked) [P-205], the DC50 came to 0.03 µM.
